Source: patent US20220389230A1, “BLAST FURNACE SLAG-TYPE PAINT” (FUKKO CO., LTD., priority 2019, published 2022)
Read-outs that look alike come from different tables or passages of the source.

Experiments:
[1] = Table 2; cited from earlier work
[2] = Confirmation of safety: presence or absence of danger (Table 2)
Experimental: The presence or absence of danger was evaluated based on the concentration adjustment work in Table 1 and whether or not it was subject to legal regulations.

[3] = Corrosiveness of alkaline substances to aluminum, change in appearance after 24 hours
Experimental: For comparison with the aqueous solution shown in Table 3, a slurry liquid obtained by adding 10 parts by weight of water to 20 parts by weight of ordinary Portland cement was allowed to contact with an aluminum plate (A1050) not subjected to the surface treatment and an aluminum sash frame coated with a sulfuric acid anodized film at the spot, and a change in the appearance after 24 hours was observed.

[4] = pH and heat of dissolution of aqueous solutions that may give an alkaline stimulus (Table 1)

SMILES	Existance of legal regulation [1]	Judging danger to human body [2]	odor [2]	pH of aqueous solution [3]	Generation of heat of dissolution [4]	Generation of heat of dissolution ([4]; Table 1, concentration adjustment of the aqueous solution)
[Ca+2].[OH-].[OH-] [Calcium hydroxide]	No regulation	The risk is small	Odorless	12	–	–
O=C([O-])[O-].[K+].[K+] [Potassium carbonate]	No regulation	The risk is small	Odorless	11	Medium	–
[K+].[OH-] [Potassium hydroxide]	Drastic medicine	Very dangerous	Odorless	15	Large	–
O=C([O-])CC(O)(CC(=O)[O-])C(=O)[O-].[Na+].[Na+].[Na+] [Sodium citrate]	No regulation	The risk is small	Odorless	–	–	–
[Na+].[OH-] [Sodium hydroxide]	Drastic medicine	–	–	–	–	Large
N [ammonia]	Drastic medicine	Very dangerous	Pungent	–	–	–
O=C([O-])[O-].[Na+].[Na+] [sodium carbonate]	No regulation	The risk is small	Odorless	12	Medium	–
